Patent US20210369684A1 (MOUNT TAM THERAPEUTICS, INC., priority 2018, published 2021)
Several values for one entry are separate records, joined by “and”; a condition that tells them apart may be missing. Equal entries are not always repeated.

Experiments:
[1] = Whole blood concentrations after IP administration to mice (LC-MS/MS); type: in vivo, mouse
Method: Shown below are whole blood concentrations following administration of the compound of Formula II to mice. The compound of Formula II was administered to mice at 2 mg/kg or 10 mg/kg for three days and the concentration of the compound in whole blood determined. These determinations were made using protein precipitation, liquid chromatography (LC), and mass spectrometry (MS/MS). Ten μl aliquots of whole blood and matrix calibration standards were distributed in a 96-well plate; 10 μl aliquots of blank matrix for matrix blanks and control blanks were included as controls. Ten μl of water was added to each sample followed by vortexing. One hundred sixty […] of internal standard was added to each sample except the matrix blanks; 160 μl 70:30 water:acetonitrile (ACN) was added to matrix blanks. This was followed by a […]. One hundred fifty μl of the resultant supernatant was then transferred to a new 96-well plate and the samples blown to dryness at 35° C. The resultant product was then reconstituted with 90 μl ACN.

TORC2 = target: T1, TORC2 (Homo sapiens, UniProt P42345+P62942); experiment: IC50 in PC3 cells, TORC2; type: cell-based
T1 construct: endogenous in cells; host or cells: PC3 cells

6-OHDA injected mice = experiment: 6-OHDA cylinder test (motor performance, contralateral touches); type: in vivo, mouse; details: 10 mg/kg, FIG. 2B
Method: An analysis of the neuroprotective effects of the compound of Formula II on motor performance was performed using the 6-OHDA cylinder test (FIG. 2A) which evaluates spontaneous motor changes associated with dopamine depletion in the striatum of 6-OHDA injected mice. […] Control mice were administered the vehicle control only. […] The data is presented in FIG. 2B as mean and standard error of the mean (SEM). Statistical analyses as compared to baseline mice were performed using the one-way Anova test (*: p<0.05; n.s.: not significant). […] Data is presented as mean and SEM. Statistical analyses were performed using One-way Anova test (*: p<0.05; ***: p<0.001. n.s.: not significant.)

- Formula II Concentrations in Mouse Whole Blood, Mean ([1]; 2 mg/kg IP QD x 3 days, Day 3, 2.00 h, mean): 501 ng/mL
- Formula II Concentrations in Mouse Whole Blood ([1]; 2 mg/kg IP QD x 3 days, Day 3, 6.00 h, individual animals 7, 8, 9): 416 ng/mL and 745 ng/mL and 604 ng/mL
- Formula II Concentrations in Mouse Whole Blood, Mean ([1]; 2 mg/kg IP QD x 3 days, Day 3, 6.00 h, mean): 588 ng/mL
- Formula II Concentrations in Mouse Whole Blood ([1]; 2 mg/kg IP QD x 3 days, Day 3, 24.0 h, individual animals 7, 8, 9): 17.6 ng/mL and 59.6 ng/mL and 48.6 ng/mL
- Formula II Concentrations in Mouse Whole Blood, Mean ([1]; 2 mg/kg IP QD x 3 days, Day 3, 24.0 h, mean): 41.9 ng/mL
- Formula II Concentrations in Mouse Whole Blood ([1]; 10 mg/kg IP QD x 3 days, Day 1, 1.00 h, individual animals 10, 11, 12): 560 ng/mL and 641 ng/mL and 769 ng/mL
- Formula II Concentrations in Mouse Whole Blood, Mean ([1]; 10 mg/kg IP QD x 3 days, Day 1, 1.00 h, mean): 657 ng/mL
- Formula II Concentrations in Mouse Whole Blood ([1]; 10 mg/kg IP QD x 3 days, Day 1, 2.00 h, individual animals 10, 11, 12): 793 ng/mL
- Formula II Concentrations in Mouse Whole Blood ([1]; 10 mg/kg IP QD x 3 days, Day 1, 6.00 h, individual animals 10, 11, 12): 1000 ng/mL and 1950 ng/mL and 544 ng/mL
- Formula II Concentrations in Mouse Whole Blood, Mean ([1]; 10 mg/kg IP QD x 3 days, Day 1, 6.00 h, mean): 1165 ng/mL
- Formula II Concentrations in Mouse Whole Blood ([1]; 10 mg/kg IP QD x 3 days, Day 1, 24.0 h, individual animals 10, 11, 12): 222 ng/mL and 181 ng/mL and 210 ng/mL
- Formula II Concentrations in Mouse Whole Blood, Mean ([1]; 10 mg/kg IP QD x 3 days, Day 1, 24.0 h, mean): 204 ng/mL
- Formula II Concentrations in Mouse Whole Blood ([1]; 10 mg/kg IP QD x 3 days, Day 2, 1.00 h, individual animals 10, 11, 12): 3410 ng/mL and 2970 ng/mL and 546 ng/mL
- Formula II Concentrations in Mouse Whole Blood, Mean ([1]; 10 mg/kg IP QD x 3 days, Day 2, 1.00 h, mean): 2309 ng/mL
- Formula II Concentrations in Mouse Whole Blood ([1]; 10 mg/kg IP QD x 3 days, Day 2, 2.00 h, individual animals 10, 11, 12): 3670 ng/mL and 3930 ng/mL and 2370 ng/mL
- Formula II Concentrations in Mouse Whole Blood, Mean ([1]; 10 mg/kg IP QD x 3 days, Day 2, 2.00 h, mean): 3323 ng/mL
- Formula II Concentrations in Mouse Whole Blood ([1]; 10 mg/kg IP QD x 3 days, Day 2, 6.00 h, individual animals 10, 11, 12): 2770 ng/mL and 3390 ng/mL and 609 ng/mL
- Formula II Concentrations in Mouse Whole Blood, Mean ([1]; 10 mg/kg IP QD x 3 days, Day 2, 6.00 h, mean): 2256 ng/mL
- Formula II Concentrations in Mouse Whole Blood ([1]; 10 mg/kg IP QD x 3 days, Day 2, 24.0 h, individual animals 10, 11, 12): 123 ng/mL and 336 ng/mL and 78.0 ng/mL
- Formula II Concentrations in Mouse Whole Blood, Mean ([1]; 10 mg/kg IP QD x 3 days, Day 2, 24.0 h, mean): 179 ng/mL
- Formula II Concentrations in Mouse Whole Blood ([1]; 10 mg/kg IP QD x 3 days, Day 3, 1.00 h, individual animals 10, 11, 12): AQL and 3420 ng/mL and 987 ng/mL
- Formula II Concentrations in Mouse Whole Blood, Mean ([1]; 10 mg/kg IP QD x 3 days, Day 3, 1.00 h, mean (animal 10 AQL)): 2204 ng/mL
- Formula II Concentrations in Mouse Whole Blood ([1]; 10 mg/kg IP QD x 3 days, Day 3, 2.00 h, individual animals 10, 11, 12): 5170 ng/mL and 3650 ng/mL and 777 ng/mL
- Formula II Concentrations in Mouse Whole Blood, Mean ([1]; 10 mg/kg IP QD x 3 days, Day 3, 2.00 h, mean): 3199 ng/mL
- Formula II Concentrations in Mouse Whole Blood ([1]; 10 mg/kg IP QD x 3 days, Day 3, 6.00 h, individual animals 10, 11, 12): 3330 ng/mL and 2890 ng/mL and 730 ng/mL
- Formula II Concentrations in Mouse Whole Blood, Mean ([1]; 10 mg/kg IP QD x 3 days, Day 3, 6.00 h, mean): 2317 ng/mL
- Formula II Concentrations in Mouse Whole Blood ([1]; 10 mg/kg IP QD x 3 days, Day 3, 24.0 h, individual animals 10, 11, 12): 223 ng/mL and 323 ng/mL and 124 ng/mL
- Formula II Concentrations in Mouse Whole Blood, Mean ([1]; 10 mg/kg IP QD x 3 days, Day 3, 24.0 h, mean): 223 ng/mL
- IC50 (TORC2): 5 nM
SMILES: CO[C@H]1C[C@@H]2CC[C@@H](C)[C@@](O)(C2)C(=O)C(=O)N2CCCC[C@H]2C(=O)O[C@H]([C@H](C)C[C@H]2C[C@H]3C[C@@H]2C[C@@H]3O)CC(=O)[C@H](C)/C=C(\C)[C@@H](O)[C@@H](OC)C(=O)[C@H](C)C[C@H](C)/C=C/C=C/C=C/1C [Formula II, C37-[(1R,2S,4R,5S)-5-hyhroxybicyclo[2.2.1]heptane] rapamycin]
- concentrations in whole blood over time (in words) ([1]; 2 mg/kg or 10 mg/kg IP QD for three days, mice): sufficient concentrations in whole blood over time
- number of touches compared with rapamycin and vehicle control (6-OHDA injected mice): clearly outperformed rapamycin and the vehicle control
- contralateral touches, difference from baseline (one-way Anova) (6-OHDA injected mice; three days pre-treatment before 6-OHDA (80 μg)): non-significant difference from baseline
